Data on two compounds can be found in patent US20140148498A1, “METHODS AND COMPOSITIONS FOR THE TREATMENT OF MARFAN SYNDROME AND ASSOCIATED DISORDERS” (THE JOHNS HOPKINS UNIVERSITY, priority 2011, published 2014).

Data set [1] has as its system ERK5. The data set is described as follows: Western blot of proximal ascending aorta: ERK5 activation (Examples 6-8). Particulars: Fbn1^C1039G/+ mice, RDEA119 trial, FIG. 16D. Type of data set: in vivo. The source says:
(§1) All mice were cared for under strict compliance with the Animal Care and Use Committee of the Johns Hopkins University School of Medicine. The Smad4 haploinsufficient mice were a generous gift from Dr. Chuxia Deng (NIH/NIDDK, Bethesda). The Fbn1^C1039G/+ line was maintained on a C57BL/6 background, allowing for valid comparisons. In order to further accommodate the potential for temporal- or background-specific variation in genetic or pharmacological manipulation experiments, all comparisons were made between contemporary littermates. Mice were checked daily for death and all mice found dead were immediately necropsied to assess for evidence of aortic dissection. Mice were killed with an inhalation overdose of halothane (Sigma-Aldrich, St. Louis). […] Following PBS infusion, mice analyzed for aortic histology had latex injected under low pressure into the left ventricular apex until it was visible in the descending abdominal aorta. […]
(§2) Protein was extracted using the reagents and protocol from a Total Protein Extraction Kit, in conjunction with a Protein Phosphatase Inhibitor Cocktail (Millipore, MA). […] Equal protein loading of samples was determined by a protein assay (BioRad, CA) and confirmed by probing with antibodies against β-Actin or GAPDH (Sigma, Mo.). […]

Data set [2] deals with p38. The experiment in a line: Western blot of proximal ascending aorta: p38 activation (Examples 6-8). Type of data set: in vivo. Particulars: Fbn1^C1039G/+ mice, RDEA119 trial, FIG. 16D.
Description: as §1, §2

A short description of data set [3]: Body weight at the end of the two month RDEA119 trial. Type of data set: in vivo. Particulars: WT or Fbn1^C1039G/+ mice, FIG. 25. On the procedure:
(§3) Mouse monoclonal TGFβNAb (1d11; R&D Systems, Minneapolis) was reconstituted in PBS and administered via intraperitoneal injection 3 times a week at a dose of 5 mg/kg. Treatment was initiated at 1 month of age and continued for 2 months. IgG (Zymed Laboratories Inc, San Francisco) was reconstituted in PBS, and administered at a dose of 10 mg/kg as a control. SP600125 (Sigma-Aldrich, St. Louis) was reconstituted in 10% DMSO dissolved in PBS, and administered twice daily by intraperitoneal injection, at a dose of 30 mg/kg. Treatment was initiated at 1 month of age and continued for 2 months. 10% DMSO dissolved in PBS was administered as a control. RDEA119 was reconstituted in 10% 2-hydroxypropyl-beta-cyclodextrin (Sigma-Aldrich, St. Louis) dissolved in PBS, and administered twice daily by oral gavage at a dose of 25 mg/kg. Treatment was initiated at 2 months of age and continued for 2 months. 10% 2-hydroxypropyl-beta-cyclodextrin dissolved in PBS was administered as a control. Fasudil was dissolved in drinking water, and administered at a dose of 1 mg/kg body weight per day. Treatment was initiated at 2 months of age and continued for 4 months. Drinking water was administered as a control. […]

The subject of data set [4] is WT mice. The data set is described as follows: Aortic root growth by echocardiography, WT mice (Examples 6-8). Type of data set: in vivo. The source says:
(§4) All mice were cared for under strict compliance with the Animal Care and Use Committee of the Johns Hopkins University School of Medicine. The Smad4 haploinsufficient mice were a generous gift from Dr. Chuxia Deng (NIH/NIDDK, Bethesda). The Fbn1^C1039G/+ line was maintained on a C57BL/6 background, allowing for valid comparisons. In order to further accommodate the potential for temporal- or background-specific variation in genetic or pharmacological manipulation experiments, all comparisons were made between contemporary littermates. Mice were checked daily for death and all mice found dead were immediately necropsied to assess for evidence of aortic dissection. Mice were killed with an inhalation overdose of halothane (Sigma-Aldrich, St. Louis). Mice underwent immediate laparotomy, descending abdominal aortic transection, and PBS (pH 7.4) infusion through the left ventricle to flush out the blood. For Western blot analysis, the proximal ascending aorta (root to right brachiocephalic trunk) was removed, flash frozen in liquid nitrogen and stored at −80° C. Following PBS infusion, mice analyzed for aortic histology had latex injected under low pressure into the left ventricular apex until it was visible in the descending abdominal aorta. The mice were then fixed for 24 hours in 10% buffered formalin, after which the heart and aorta were removed and stored in 70% ethanol.
(§5) Mouse monoclonal TGFβNAb (1d11; R&D Systems, Minneapolis) was reconstituted in PBS and administered via intraperitoneal injection 3 times a week at a dose of 5 mg/kg. Treatment was initiated at 1 month of age and continued for 2 months. IgG (Zymed Laboratories Inc, San Francisco) was reconstituted in PBS, and administered at a dose of 10 mg/kg as a control. […]
(§6) Nair hair removal cream was used on all mice the day prior to echocardiography. […] Three separate measurements of the maximal internal systolic dimension at the sinus of Valsalva and proximal ascending aorta were made, and a mean was calculated. […]

Data set [5] relates to JNK1. The data set is described as follows: Western blot of proximal ascending aorta: JNK1 activation (Examples 6-8). Type of data set: in vivo, mice.
Description: as §1, §2

For data set [6], the system named is Smad2. The experiment in a line: Western blot of proximal ascending aorta: Smad2 activation (Examples 6-8). Type of data set: in vivo. Particulars: Fbn1^C1039G/+ mice, RDEA119 trial, FIG. 16D.
Description: as §1, §2

The test system of data set [7] is Fbn1^C1039G/+ mice. The data set is described as follows: Aortic root and ascending aortic growth by echocardiography (Examples 6-8). Type of data set: in vivo.
Description: as §4
Mouse monoclonal TGFβNAb (1d11; R&D Systems, Minneapolis) was reconstituted in PBS and administered via intraperitoneal injection 3 times a week at a dose of 5 mg/kg. Treatment was initiated at 1 month of age and continued for 2 months. IgG (Zymed Laboratories Inc, San Francisco) was reconstituted in PBS, and administered at a dose of 10 mg/kg as a control. SP600125 (Sigma-Aldrich, St. Louis) was reconstituted in 10% DMSO dissolved in PBS, and administered twice daily by intraperitoneal injection, at a dose of 30 mg/kg. Treatment was initiated at 1 month of age and continued for 2 months. 10% DMSO dissolved in PBS was administered as a control. RDEA119 was reconstituted in 10% 2-hydroxypropyl-beta-cyclodextrin (Sigma-Aldrich, St. Louis) dissolved in PBS, and administered twice daily by oral gavage at a dose of 25 mg/kg. Treatment was initiated at 2 months of age and continued for 2 months. 10% 2-hydroxypropyl-beta-cyclodextrin dissolved in PBS was administered as a control. Fasudil was dissolved in drinking water, and administered at a dose of 1 mg/kg body weight per day. Treatment was initiated at 2 months of age and continued for 4 months. Drinking water was administered as a control.
Nair hair removal cream was used on all mice the day prior to echocardiography. All echocardiograms were performed on awake, unsedated mice using the Visualsonics Vevo 660 V1.3.6 imaging system and a 30 MHz transducer. The aorta was imaged using a parasternal long axis view. Three separate measurements of the maximal internal systolic dimension at the sinus of Valsalva and proximal ascending aorta were made, and a mean was calculated. All imaging and measurements were performed by a cardiologist who was blinded to genotype and treatment arm. In the TGFβNAb and SP600125 trials, mice were imaged at 1 month (baseline) and 3 months of age, after which they were killed. In the RDEA119 trial, mice were imaged at 2 months (baseline) and 4 months of age, after which they were killed. In the fasudil trial, mice were imaged at 2 months (baseline) and 6 months of age, after which they were killed. Smad4 haploinsufficient mice were imaged at 1 month, and then every 2 months thereafter, until death or sacrifice.

Data set [8] deals with ERK1/2. The data set is described as follows: Western blot of proximal ascending aorta: ERK1/2 activation (Examples 6-8). Type of data set: in vivo, mice.
Description: as §4, §5, §2

For data set [9], the system named is S4^+/−:Fbn1^C1039G/+ mice. The data set is described as follows: Aortic root and ascending aortic growth by echocardiography, Smad4 haploinsufficient MFS mice. Type of data set: in vivo.
Description: as §4
as §3, with “months.” for “months. Drinking water was administered as a control.”
as §6

Data set [10] concerns S4^+/−:Fbn1^C1039G/+ mice. The experiment in a line: Survival (premature death due to aortic dissection). Type of data set: in vivo.
Description: as §4, with “ethanol. […]” for “ethanol.”

Data set [11] deals with abdominal aortic aneurysm induced by the periaortic application of calcium chloride. As to conditions: prior work (Yoshimura et al. 2005), in association with reduced JNK1 activation; cited from earlier work.
Where [12] appears, read: 25 mg/kg twice daily oral gavage, 2 to 4 months of age, FIG. 16C.
Setting [13] is: RDEA119 trial, 2 months of treatment.
[14] abbreviates: Fbn1^C1039G/+ mice, RDEA119 trial, FIG. 16D.
The mark [15] stands for this setting: 30 mg/kg twice daily i.p., 1 to 3 months of age, FIG. 23A.
Where [16] appears, read: WT and Fbn1^C1039G/+ mice after two weeks of therapy, FIG. 24.

“Also recorded” adds a separate entry of the source.

In the case of `COc1cc(F)c(F)c(Nc2ccc(I)cc2F)c1NS(=O)(=O)C1(C[C@H](O)CO)CC1` [RDEA119], in [1], the ERK5 activation result was “unchanged”. Also, the p38 activation entry in data set [2] is recorded as “unchanged”. Moreover, the “Weight (somatic growth) at the end of the two month trial” value in data set [3] is on record as “does not significantly affect somatic growth; also recorded: did not significantly affect the weight”. Moreover, the “Final absolute aortic root diameter” value in data set [4] (setting [12]) is listed as 1.64+/−0.09 mm; in data set [7] (setting [12]), 1.94+/−0.07 mm. In addition, the results for the Aortic root growth result in data set [4] (setting [13]) and in [7] (setting [13]) were “no significant effect” and “selectively reduced growth; also recorded: significantly less than that of placebo-treated”, respectively. Besides, the JNK1 activation result in [5] (setting [14]) is on record as “unchanged”. In [6], the Smad2 activation entry is “unchanged”. Also, the ERK1/2 activation result in data set [8] (setting [14]) was “selective reduction in pERK1/2 signaling; also recorded: significant reduction in ERK1/2 activation”.

Turning to `O=C1c2ccccc2-c2n[nH]c3cccc1c23` [SP600125], in data set [9] (setting [15]), the “Final absolute aortic root diameter” value is reported as 2.09+/−0.16 mm and the “Final absolute ascending aortic diameter” value is 1.47+/−0.14 mm. In data set [9] (SP600125 trial, versus placebo), the Aortic root growth result is reported as “decreased aortic root growth; also recorded: significant reduction” and the Ascending aortic growth entry was “reduced ascending aortic growth; also recorded: significant reduction”. Also, the JNK1 activation entry in data set [5] (setting [16]) was “significant reduction in JNK1 activation; also recorded: reduction of JNK1 activation to levels below baseline”. In data set [7] (setting [15]), the “Final absolute aortic root diameter” value is reported as 1.97+/−0.16 mm and the “Final absolute ascending aortic diameter” value is listed as 1.38+/−0.06 mm. The Aortic root growth result in data set [7] (SP600125 trial, versus placebo) is recorded as “decreased aortic root growth; also recorded: ameliorated their aortic root growth”. Also, the “Mice still alive at 3 months of age” value in data set [10] (50% of placebo-treated had died) was “all”. Also, in [10] (FIG. 23B), the “Premature death due to aortic dissection” value is “prevention of premature death; also recorded: prevented the premature death”. In addition, the ERK1/2 activation entry in [8] (setting [16]) was “no change in ERK1/2 activation; also recorded: remained unaffected”. Further, the Abdominal aortic aneurysm result in [11] is “ameliorate abdominal aortic aneurysm”.
